Data reported in patent US20240262815A1, “HETEROARYL DERIVATIVE, METHOD FOR PREPARING SAME, AND PHARMACEUTICAL COMPOSITION COMPRISING SAME AS ACTIVE INGREDIENT” (VORONOI INC., priority 2021, published 2024).

Test system: SK-BR-3 cancer cells
Experiment: Inhibitory activity against proliferation of SK-BR-3 cancer cells (CellTiter-Glo)
Assay type: cell-based
Settings: Homo sapiens, SK-BR-3, 120 h, ErbB2-overexpressing SK-BR-3 cells, 120 hours after treatment
Procedure, shortened: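 Cells seeded 48 h before dosing (SK-BR-3 in McCOY'S 5A + 10% FBS; BT-474 in RPMI-1640 + 20% FBS), then exposed 120 h to 12 concentrations, 0.2 nM-5 μM final. Viability by CellTiter-Glo luminescence; GI50 from growth rate vs control, triplicate runs.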

| Structure (SMILES) | GI50 |
| --- | --- |
| C=CC(=O)Nc1cc(Nc2cc(N3OCC[C@@H]3c3cccc(C#Cc4ccccc4)c3)ncn2)c(OC)cc1N1CCN(C)CC1 [Example 296, (R)-N-(4-methoxy-2-(4-methylpiper-azin-1-yl)-5-((6-(3-(3-(phenyleth-ynyl)phenyl)isox-azolidin-2-yl)pyr-imidin-4-yl)amino)-phenyl)acrylamide] | 50 to 500 nM |
| C=CC(=O)Nc1cc(Nc2cc(N3OCCC3c3cccc(-c4cccc(C(F)(F)F)c4)c3)ncn2)c(OC)cc1N1CCN(C)CC1 (stereo not shown) [Example 237] | 50 to 500 nM |
| C=CC(=O)Nc1cc(Nc2cc(N3OCC[C@@H]3c3cccc(C(=O)OC4CCCCC4)c3)ncn2)c(OC)cc1N1CCC(N2CCN(C3CC3)CC2)CC1 [Example 185, cyclohexyl (R)-3-(2-(6-((5-acryl-amido-4-(4-(4-cyclopropylpiper-azin-1-yl)piper-idin-1-yl)-2-meth-oxyphenyl)amino)-pyrimidin-4-yl)-isoxazolidin-3-yl)-benzoate] | 50 to 500 nM |
| C=CC(=O)Nc1cc(Nc2cc(N3OCC[C@@H]3c3cccc(Oc4cc(F)ccc4F)c3)ncn2)c(OC)cc1N1CCN(C)CC1 [Example compound 103, (R)-N-(5-((6-(3-(3-(2,5-difluorophenoxy)phenyl)isoxazolidin-2-yl)pyrimidin-4-yl)amino)-4-methoxy-2-(4-methylpiperazin-1-yl)phenyl)acrylamide] | 50 to 500 nM |
| COc1cc(F)c(NC(=O)/C=C/CN(C)C)cc1Nc1cc(N2OCC[C@@H]2c2ccc(F)c(OCc3cccc(F)c3)c2)ncn1 [Example 255, (R,E)-4-(dimethyl-amino)-N-(2-fluoro-5-((6-(3-(4-fluoro-3-((3-fluorobenzyl)oxy)-phenyl)isoxazol-idin-2-yl)pyrim-idin-4-yl)amino)-4-methoxyphen-yl)but-2-enamide] | 50 to 500 nM |
| C=CC(=O)Nc1cc(Nc2cc(N3OCC[C@@H]3c3cccc(OCc4cccc(C)n4)c3)ncn2)c(OC)cc1N1CCC(N2CCN(C3CC3)CC2)CC1 [Example compound 100, (R)-N-(2-(4-(4-cyclopropylpiperazin-1-yl)piperidin-1-yl)-4-methoxy-5-((6-(3-(3-((6-methylpyridin-2-yl)methoxy)phenyl)isoxazolidin-2-yl)pyrimidin-4-yl)amino)phenyl)acrylamide] | 50 to 500 nM |
| C=CC(=O)Nc1cc(Nc2cc(N3OCCC3c3cccc(-c4cccs4)c3)ncn2)c(OC)cc1N1CCC(N2CCN(C3CC3)CC2)CC1 (stereo not shown) [Example 182, N-(2-(4-(4-cyclo-propylpiperazin-1-yl)piperidin-1-yl)-4-methoxy-5-((6-(3-(3-(thiophen-2-yl)phenyl)isoxazol-idin-2-yl)pyrim-idin-4-yl)amino)-phenyl)acrylamide] | < 50 nM |
| C=CC(=O)Nc1cc(Nc2cc(N3OCCC3c3cccc(C#Cc4ccccc4)c3)ncn2)c(OC)cc1N1CCN(C)CC1 (stereo not shown) [Example compound 137, N-(4-methoxy-2-(4-methylpiperazin-1-yl)-5-((6-(3-(3-(phenylethynyl)phenyl)isoxazolidin-2-yl)pyrimidin-4-yl)amino)phenyl)acrylamide] | 50 to 500 nM |
| C=CC(=O)Nc1cc(Nc2cc(N3OCCC3c3cccc(-c4cccn5ccnc45)c3)ncn2)c(OC)cc1N(C)CCN(C)C (stereo not shown) [Example 204, N-(2-((2-(dimeth-ylamino)ethyl)-(methyl)amino)-5-((6-(3-(3-(imidazo-[1,2-a]pyridin-8-yl)phenyl)isoxazol-idin-2-yl)pyrim-idin-4-yl)amino)-4-methoxyphen-yl)acrylamide] | < 50 nM |
| C=CC(=O)Nc1cc(Nc2cc(N3OCC[C@@H]3c3cc(F)cc(Oc4ccn(C)n4)c3)ncn2)c(OC)cc1N(C)CCN(C)C [Example 218, (R)-N-(2-((2-(dimethylamino)-ethyl)(methyl)-amino)-5-((6-(3-(3-fluoro-5-((1-methyl-1H-pyr-azol-3-yl)oxy)-phenyl)isoxazol-idin-2-yl)pyrim-idin-4-yl)amino)-4-methoxyphen-yl)acrylamide] | < 50 nM |
| C=CC(=O)Nc1cc(Nc2cc(N3OCC[C@@H]3c3cccc(-c4ccc(O)nc4)c3)ncn2)c(OC)cc1N1CCN(C)CC1 [Example 299, (R)-N-(5-((6-(3-(3-(6-hydroxypyridin-3-yl)phenyl)isox-azolidin-2-yl)pyr-imidin-4-yl)amino)-4-methoxy-2-(4-methylpiperazin-1-yl)phenyl)acryl-amide] | 500 to 5000 nM |
| C=CC(=O)Nc1cc(Nc2cc(N3OCC[C@@H]3c3cccc(C(=O)NC(C)C)c3)ncn2)c(OC)cc1N1CCN(C)CC1 [Example 246, (R)-3-(2-(6-((5-acrylamido-2-methoxy-4-(4-methylpiperazin-1-yl)phenyl)-amino)pyrimidin-4-yl)isoxazolidin-3-yl)-N-isopropyl-benzamide] | < 50 nM |
| C=CC(=O)Nc1cc(Nc2cc(N3OCC[C@@H]3c3cccc(-c4cc(F)cc(F)c4)c3)ncn2)c(OC)cc1N(C)CCN(C)C [Example 277, (R)-N-(5-((6-(3-(3′,5′-difluoro-[1,1′-biphenyl]-3-yl)-isoxazolidin-2-yl)-pyrimidin-4-yl)-amino)-2-((2-(dimethylamino)-ethyl)(methyl)-amino)-4-methoxy-phenyl)acrylamide] | < 50 nM |
| C=CC(=O)Nc1cc(Nc2cc(N3OCC[C@@H]3c3ccc(C)c(OCc4cccc(F)c4)c3)ncn2)c(OC)cc1F [Example 258, (R)-N-(2-fluoro-5-((6-(3-(3-((3-fluorobenzyl)oxy)-4-methylphenyl)-isoxazolidin-2-yl)-pyrimidin-4-yl)-amino)-4-methoxy-phenyl)acrylamide] | 500 to 5000 nM |
| C=CC(=O)Nc1cc(Nc2cc(N3OCC[C@@H]3c3ccc(F)c(Oc4cccc(F)c4)c3)ncn2)c(OC)cc1N1CCC(N2CCN(C3CC3)CC2)CC1 [Example compound 152, (R)-N-(2-(4-(4-cyclopropylpiperazin-1-yl)piperidin-1-yl)-5-((6-(3-(4-fluoro-3-(3-fluorophenoxy)phenyl)isoxazolidin-2-yl)pyrimidin-4-yl)amino)-4-methoxyphenyl)acrylamide] | < 50 nM |
| C=CC(=O)Nc1cc(Nc2cc(N3OCC[C@@H]3c3cccc(-c4ccccc4)c3)ncn2)c(OC)cc1N1CCN(CCC)CC1 [Example 230, (R)-N-(5-((6-(3-([1,1′-biphenyl]-3-yl)isoxazolidin-2-yl)pyrimidin-4-yl)-amino)-4-methoxy-2-(4-propylpiper-azin-1-yl)phenyl)-acrylamide] | < 50 nM |

The next lines start with the values.

| GI50 | Structure (SMILES) |
| --- | --- |
| < 50 nM | C=CCN1CCN(c2cc(OC)c(Nc3cc(N4OCC[C@@H]4c4cccc(-c5cc(F)cc(F)c5)c4)ncn3)cc2NC(=O)C=C)CC1 [Example 271, (R)-N-(2-(4-allyl-piperazin-1-yl)-5-((6-(3-(3′,5′-difluoro-[1,1′-biphen-yl]-3-yl)-isoxazolidin-2-yl)-pyrimidin-4-yl)-amino)-4-methoxy-phenyl)acrylamide] |
| < 50 nM | C=CC(=O)Nc1cc(Nc2cc(N3OCC[C@@H]3c3cc(F)cc(OCc4ccccn4)c3)ncn2)c(OC)cc1N1CCN(C)CC1 [Example 195, (R)-N-(5-((6-(3-(3-fluoro-5-(pyr-idin-2-ylmethoxy)-phenyl)isoxazol-idin-2-yl)pyrim-idin-4-yl)amino)-4-methoxy-2-(4-methylpiperazin-1-yl)phenyl)-acrylamide] |
| < 50 nM | C=CC(=O)Nc1cc(Nc2cc(N3OCC[C@@H]3c3cc(F)cc(-c4cnn(C)c4)c3)ncn2)c(OC)cc1N1CCC(N2CCN(C3CC3)CC2)CC1 [Example compound 129, (R)-N-(2-(4-(4-cyclopropylpiperazin-1-yl)piperidin-1-yl)-5-((6-(3-(3-fluoro-5-(1-methyl-1H-pyrazol-4-yl)phenyl)isoxazolidin-2-yl)pyrimidin-4-yl)amino)-4-methoxyphenyl)acrylamide] |
| < 50 nM | C=CC(=O)Nc1cc(Nc2cc(N3OCCC3c3cccc(-c4ccc5ncnn5c4)c3)ncn2)c(OC)cc1N(C)CCN(C)C (stereo not shown) [Example 198, N-(5-((6-(3-(3-([1,2,4]triazolo-[1,5-a]pyridin-6-yl)phenyl)isoxazol-idin-2-yl)pyrim-idin-4-yl)amino)-2-((2-(dimethyl-amino)ethyl)-(methyl)amino)-4-methoxyphen-yl)acrylamide] |
| < 50 nM | C=CC(=O)Nc1cc(Nc2cc(N3OCC[C@@H]3c3cc(F)cc(-c4cccs4)c3)ncn2)c(OC)cc1N(C)CCN(C)C [Example 243, (R)-N-(2-((2-(dimethylamino)-ethyl)(methyl)-amino)-5-((6-(3-(3-fluoro-5-(thio-phen-2-yl)phenyl)-isoxazolidin-2-yl)-pyrimidin-4-yl)-amino)-4-methoxy-phenyl)acrylamide] |
| < 50 nM | C=CC(=O)Nc1cc(Nc2cc(N3OCC[C@@H]3c3cccc(-c4ccn5ncnc5c4)c3)ncn2)c(OC)cc1N1CCN(C)CC1 [Example 268, (R)-N-(5-((6-(3-(3-([1,2,4]triazolo-[1,5-a]pyridin-7-yl)phenyl)isoxazol-idin-2-yl)pyrim-idin-4-yl)amino)-4-methoxy-2-(4-methylpiperazin-1-yl)phenyl)-acrylamide] |
| < 50 nM | C=CC(=O)Nc1cc(Nc2cc(N3OCC[C@@H]3c3cccc(-c4ccc5ncnn5c4)c3)ncn2)c(OC)cc1N1CCN(C)CC1 [Example 266, (R)-N-(5-((6-(3-(3-([1,2,4]triazolo-[1,5-a]pyridin-6-yl)phenyl)isoxazol-idin-2-yl)pyrim-idin-4-yl)amino)-4-methoxy-2-(4-methylpiperazin-1-yl)phenyl)acryl-amide] |
| < 50 nM | C=CC(=O)Nc1cc(Nc2cc(N3OCC[C@@H]3c3cc(F)cc(-c4cccnc4)c3)ncn2)c(OC)cc1N(C)CCN(C)C [Example 178, (R)-N-(2-((2-(dimethylamino)-ethyl)(methyl)-amino)-5-((6-(3-(3-fluoro-5-(pyr-idin-3-yl)phenyl)-isoxazolidin-2-yl)-pyrimidin-4-yl)-amino)-4-methoxy-phenyl)acrylamide] |
| < 50 nM | C=CC(=O)Nc1cc(Nc2cc(N3OCC[C@@H]3c3ccc(F)c(OCc4cccc(F)c4)c3)ncn2)c(OC)cc1N1CCN(C)CC1 [Example 244, (R)-N-(5-((6-(3-(4-fluoro-3-((3-fluorobenzyl)oxy)-phenyl)isoxazol-idin-2-yl)pyrim-idin-4-yl)amino)-4-methoxy-2-(4-methylpiperazin-1-yl)phenyl)-acrylamide] |
